# Results published in patent publication US9833466B2, “Treatment of leukemia with histone deacetylase inhibitors” (Acetylon Pharmaceuticals Inc., priority 2014, dated 2017).
# Test system: AML1/ETO fusion protein
# Test: AML1/ETO fusion protein Western blot in Kasumi-1 cells
# Format: cell-based
# Settings: 24 hours
# Description: One type of AML has a signature chromosome translocation t(8:21) and therefore expression of a unique fusion protein AML1/ETO. […] In this study, Kasumi-1 cells were exposed to different concentrations of the HDAC inhibitor Compound A, or another HDAC1/2/6 selective inhibitor Compound G (data not shown), for 24 hours. The whole cell lysates were separated by SDS-PAGE (SDS-polyacrylamide gel electrophoresis) and transferred to a membrane (Western blot). The AML1/ETO fusion protein was detected on the membrane using an AML1 specific antibody.
smiles,measurement,value
"O=C(CCCCCCNC(=O)c1cnc(N(c2ccccc2)c2ccccc2)nc1)NO [Compound A, 2-(diphenylamino)-N-(7-(hydroxyamino)-7-oxoheptyl)pyrimidine-5-carboxamide]",amount of AML1/ETO fusion protein,decrease the amount of this fusion protein in a concentration dependent manner
